Laboratory results taken from publication PMC7642415, “Perturbed structural dynamics underlie inhibition and altered efflux of the multidrug resistance pump AcrB” (Nature Communications, 2020).
Where a SMILES comes first, the peptide text is derived from it.

What was measured:
AcrB [1] = target: T1, AcrB (Escherichia coli, UniProt P31224, G288D); assay type: binding
T1 construct: full-length AcrB with C-terminal 6xHis tag, in DDM micelles

AcrB [2] = target: T2, AcrB (Escherichia coli, UniProt P31224); experiment: differential HDX-MS on purified AcrB WT; assay type: binding
T2 construct: full-length AcrB with C-terminal 6xHis tag, in DDM micelles
T2 sequence (P31224 whole entry): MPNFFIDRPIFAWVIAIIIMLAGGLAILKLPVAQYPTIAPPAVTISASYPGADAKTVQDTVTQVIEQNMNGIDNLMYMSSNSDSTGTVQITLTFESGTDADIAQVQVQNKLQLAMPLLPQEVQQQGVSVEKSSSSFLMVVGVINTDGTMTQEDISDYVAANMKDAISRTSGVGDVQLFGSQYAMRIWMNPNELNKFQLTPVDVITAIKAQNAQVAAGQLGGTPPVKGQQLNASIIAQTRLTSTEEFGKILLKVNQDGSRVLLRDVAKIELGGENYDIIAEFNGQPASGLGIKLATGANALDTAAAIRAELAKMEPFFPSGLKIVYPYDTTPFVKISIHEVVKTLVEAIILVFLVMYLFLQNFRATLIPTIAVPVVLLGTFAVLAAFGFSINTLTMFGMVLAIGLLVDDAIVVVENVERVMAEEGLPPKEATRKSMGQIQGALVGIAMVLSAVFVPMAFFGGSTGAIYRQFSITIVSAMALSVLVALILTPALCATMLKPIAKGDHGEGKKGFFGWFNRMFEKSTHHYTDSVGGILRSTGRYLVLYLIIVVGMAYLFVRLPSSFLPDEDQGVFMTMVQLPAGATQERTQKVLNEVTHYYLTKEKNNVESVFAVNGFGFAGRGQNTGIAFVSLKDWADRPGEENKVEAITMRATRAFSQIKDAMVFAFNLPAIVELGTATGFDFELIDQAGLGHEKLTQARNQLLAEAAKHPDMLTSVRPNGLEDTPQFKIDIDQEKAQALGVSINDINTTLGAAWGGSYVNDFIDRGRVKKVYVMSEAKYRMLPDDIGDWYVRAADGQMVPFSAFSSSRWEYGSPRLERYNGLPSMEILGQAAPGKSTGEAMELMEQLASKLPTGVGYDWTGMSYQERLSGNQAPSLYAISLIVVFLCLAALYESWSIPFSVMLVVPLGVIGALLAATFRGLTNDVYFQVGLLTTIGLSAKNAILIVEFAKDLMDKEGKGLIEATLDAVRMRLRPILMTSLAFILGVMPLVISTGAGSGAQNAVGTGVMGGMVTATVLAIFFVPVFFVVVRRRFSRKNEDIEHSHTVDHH

T1 sequence (P31224 whole entry G288D): as the sequence (P31224 whole entry) above, with G288D counted along it

Question: `NC(N)=NCCC[C@H](NC(=O)[C@@H](N)Cc1ccccc1)C(=O)Nc1ccc2ccccc2c1` [PAβN, phenylalanine-arginine-β-naphthylamide] (HELM PEPTIDE1{F.R.[c1ccc2cc(N[*:1])ccc2c1]}$$$$V2.0) was tested. Which “differential HDX-MS on purified AcrB G288D” value (AcrB [1]) did it give?
Answer: The value was “Upon substrate binding, PAβN caused reduced HDX within the PC1/PC2 regions for AcrB^G288D”.

Question: And the “differential HDX-MS on purified AcrB WT” value (AcrB [2])?
Answer: Its value is “inhibitor binding led to HDX reduction throughout extensive parts of the PC1/PC2 cleft of the drug-binding pockets”.
